In US20260285853A1, “COMPOUNDS AND METHODS FOR MODULATING SPLICING” (REMIX THERAPEUTICS INC., priority 2023, published 2026):

What was measured:
Format in all cases: cell-based
HTT mRNA [1] = assay: Splicing RT-qPCR assay (THP), Table 2A; settings: Table 2A, THP; for AC50: HTT alternative junction (AJ) mRNA, read-out: HTT AJ (AC50, increase in alternative junction mRNA); for IC50: HTT canonical junction (CJ) mRNA, read-out: HTT CJ (IC50, decrease in canonical junction mRNA)
[2] = system: SH-SY5Y (human neuroblastoma) cells; assay: Cell viability, Cell Titer Glo 2.0 assay; settings: read-out: Viability SHSY5Y.3 GI50
Outline: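 SH-SY5Y neuroblastoma cells are exposed to test compounds for 72 hours at 37 °C and 5% CO2, with final DMSO held at 0.1%. Cell viability is then measured with the CellTiter-Glo 2.0 assay.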

MYB mRNA [3] = assay: Gene panel canonical junction qPCR assay, decrease in CJ mRNA, Table 3; settings: decrease in CJ mRNA levels, canonical junction qPCR, gene panel
Outline: (§1)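 A673 cells were plated, left to adhere for 24 h, then dosed; K562 cells were plated in 96- or 384-well format and dosed directly. Both were incubated 24 h at 37 °C with an 11-point 3-fold series (top 10 uM final). Canonical junction mRNA was then read by cDNA synthesis and qPCR.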

HTT mRNA [4] = assay: as above; settings: decrease in CJ mRNA levels, canonical junction qPCR, gene panel
Outline: as §1

MYB mRNA [5] = assay: Splicing RT-qPCR assay (THP), Table 2A; settings: Table 2A, THP; for AC50: MYB alternative junction (AJ) mRNA, read-out: MYB AJ (AC50, increase in alternative junction mRNA); for IC50: MYB canonical junction (CJ) mRNA, read-out: MYB CJ (IC50, decrease in canonical junction mRNA)

Row | Compound | AC50 (HTT mRNA [1]) | IC50 (HTT mRNA [1]) | GI50 [2] | IC50 (MYB mRNA [3]) | IC50 (HTT mRNA [4]) | AC50 (MYB mRNA [5]) | IC50 (MYB mRNA [5])
1 | Cc1cn2cc(NC(=O)c3ccc(N4CCCC(N)C4)c4cn(C)nc34)nc2c(CNS(C)(=O)=O)n1 (centres unmarked) [Compound 866] | > 10 µM | > 10 µM | > 10 µM | > 10 µM | > 10 µM | > 10 µM | > 10 µM
2 | Cn1cc2cc(NC(=O)c3ccc(N4CCC(NC5CC5)CC4)c4cn(C)nc34)c(O)c(CNS(C)(=O)=O)c2n1 [Compound 867] | > 10 µM | > 10 µM | > 10 µM | > 10 µM | > 10 µM | > 10 µM | > 10 µM
3 | CC(c1cc(NC(=O)c2ccc(N3CCC(NC4CC4)CC3)c3cn(C)nc23)cc2cn(C)nc12)S(=O)(=O)N(C)C (centres unmarked) [Compound 868] | > 10 µM | > 10 µM | 1 to 10 µM | > 10 µM | > 10 µM | > 10 µM | > 10 µM
4 | Cc1c2cc(NC(=O)c3ccc(N4CCC(NC5CC5)CC4)c4cn(C)nc34)cc(CNS(C)(=O)=O)c2nn1C [Compound 869] | > 10 µM | > 10 µM | > 10 µM | > 10 µM | > 10 µM | > 10 µM | > 10 µM
5 | Cc1cn2nc(NC(=O)c3ccc(N4CCC(NC5CC5)CC4)c4cn(C)nc34)cc(CN)c2n1 [Compound 870] | > 10 µM | > 10 µM | 0.1 to 1 µM | > 10 µM | > 10 µM | > 10 µM | > 10 µM
6 | Cn1cc2cc(NC(=O)c3ccc(N4CCC(NC5CC5)CC4)c4cn(C)nc34)cc(CNC(=N)N)c2n1 [Compound 871] | > 10 µM | > 10 µM | > 10 µM | 1 to 10 µM | > 10 µM | 1 to 10 µM | 1 to 10 µM
7 | CCNC1CCN(c2ccc(C(=O)Nc3cn4cc(C)nc(CC(=O)NC)c4n3)c3nn(C)cc23)CC1 [Compound 872, 4-[4-(ethylamino)-1-piperidyl]-2-methyl-N-[6-methyl-8-[2-(methylamino)-2-oxo-ethyl]imidazo[1,2-a]pyrazin-2-yl]indazole-7-carboxamide] | > 10 µM | > 10 µM | > 10 µM | > 10 µM | > 10 µM | > 10 µM | > 10 µM
8 | CCNC1CCN(c2ccc(C(=O)Nc3cc(CC(N)=O)c4nn(C)cc4c3)c3nn(C)cc23)CC1 [Compound 873, N-[7-(2-amino-2-oxo-ethyl)-2-methyl-indazol-5-yl]-4-[4-(ethylamino)-1-piperidyl]-2-methyl-indazole-7-carboxamide] | > 10 µM | > 10 µM | > 10 µM | > 10 µM | > 10 µM | > 10 µM | > 10 µM
9 | CCNC1CCN(c2ccc(C(=O)Nc3cc(CS(=O)(=O)N(C)C)c4nn(C)cc4c3)c3nn(C)cc23)CC1 [Compound 874] | > 10 µM | > 10 µM | > 10 µM | > 10 µM | > 10 µM | > 10 µM | > 10 µM
10 | CCNC1CCN(c2ccc(C(=O)Nc3cc(CCC(N)=O)c4nn(C)cc4c3)c3nn(C)cc23)CC1 [Compound 875] | > 10 µM | > 10 µM | > 10 µM | > 10 µM | > 10 µM | > 10 µM | > 10 µM
11 | CCNC1CCN(c2ccc(C(=O)Nc3cc(CCC(=O)NC)c4nn(C)cc4c3)c3nn(C)cc23)CC1 [Compound 876] | 1 to 10 µM | 1 to 10 µM | 1 to 10 µM | 1 to 10 µM | 1 to 10 µM | 1 to 10 µM | 1 to 10 µM
12 | CCNC1CCN(c2ccc(C(=O)Nc3cc(CCC(=O)N(C)C)c4nn(C)cc4c3)c3nn(C)cc23)CC1 [Compound 877] | > 10 µM | > 10 µM | > 10 µM | > 10 µM | > 10 µM | > 10 µM | > 10 µM
13 | CCNC1CCN(c2ccc(C(=O)Nc3cc(CCc4nnc[nH]4)c4nn(C)cc4c3)c3nn(C)cc23)CC1 [Compound 878] | > 10 µM | > 10 µM | > 10 µM | > 10 µM | > 10 µM | > 10 µM | > 10 µM
14 | Cn1cc2cc(NC(=O)c3ccc(N4CCC(NC5CC5)CC4)c4cn(C)nc34)cc(CCO)c2n1 [Compound 879] | > 10 µM | > 10 µM | 1 to 10 µM | 1 to 10 µM | > 10 µM | 1 to 10 µM | 1 to 10 µM
